Like-named read-outs stand apart in the source and are kept apart here. Values belong to the compound of their own block, whether it stands above or below them.
How the values were obtained:
human FPR1 = biological target: T1, human FPR1 (Homo sapiens, UniProt P21462); experiment: Antagonist effect on Ca2+ mobilization in FPR1-HL60 transfected cells; conditions: inhibition of Ca2+ mobilization induced by 5 nM fMLF, N.A. = Not Active; for IC50: read-out: FPR1-HL60 (IC50)
T1 sequence (P21462 1-350): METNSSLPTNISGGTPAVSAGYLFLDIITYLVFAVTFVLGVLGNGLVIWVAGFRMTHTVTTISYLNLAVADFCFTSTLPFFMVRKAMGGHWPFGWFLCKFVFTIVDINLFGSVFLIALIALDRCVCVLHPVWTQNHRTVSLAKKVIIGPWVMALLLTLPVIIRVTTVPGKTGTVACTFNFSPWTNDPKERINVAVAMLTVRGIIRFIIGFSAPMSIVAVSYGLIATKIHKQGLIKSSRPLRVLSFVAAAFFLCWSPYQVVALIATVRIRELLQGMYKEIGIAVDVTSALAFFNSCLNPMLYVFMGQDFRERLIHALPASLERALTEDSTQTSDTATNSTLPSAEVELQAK

in vitro = conditions: rat, pH 7.4
NCl–N87 cells [1] = experiment: MTT viability assay in NCl–N87 cells; assay type: cell-based; conditions: Homo sapiens
Text: (§1) We decided to study, for the first time, the effect of pharmacological blockade of FPR1 on cell proliferation, cell migration, and angiogenesis in GC by using our antagonists 24a and 25a. We first assessed the expression levels of FPR1 and FPR2 mRNA in four GC cell lines, i.e., HGC27, derived from human gastric carcinoma, KATOIII, AGS, and NCl–N87, derived from human gastric adenocarcinoma. […] We first assessed the effect of compounds 24a and 25a on cell viability in both cell lines at 24, 48, and 72 h using the MTT assay (Table 2).
(§2) AGS and NCl–N87 human gastric cancer cell lines were purchased and authenticated by American Type Culture Collection (Manassas, Virginia, USA). All cell culture components were purchased from Sigma-Aldrich (Milan, Italy) and Celbio s.r.l. (Milano, Italy).
(§3) AGS and NCl–N87 human gastric cancer cell lines were grown in RPMI high glucose supplemented with 10% fetal bovine serum, 2 mM glutamine, 100 U/mL penicillin, 100 μg/mL streptomycin, in a humidified incubator at 37 °C with a 5% CO2 atmosphere.
(§4) Determination of cell growth was performed using the MTT assay at 24h, 48 h, and 72 h. On day 1, 5000 cells/well were seeded into 96-well plates in a volume of 100 μL. On day 2, the test compound was added at different concentrations. In all the experiments, the solvent used to dissolve the drug (ethanol, DMSO) was added in each control to evaluate possible cytotoxicity. After the established incubation time with drugs, MTT (0.5 mg/mL) was added to each well. Following 3 h incubation at 37 °C, the supernatant was removed. The formazan crystals were solubilized using 100 μL of DMSO and the absorbance values at 570 and 630 nm were determined on a Victor 3 microplate reader (PerkinElmer).

AGS cells = experiment: MTT viability assay in AGS cells; assay type: cell-based; conditions: Homo sapiens
Text: as §1, §2, §3, §4

ANGPT2 mRNA = experiment: Real-time PCR of ANGPT2 mRNA expression in NCl–N87 and AGS cells; assay type: cell-based, human; conditions: 24 h, fMLF 10 nM, antagonists 1 or 2 μM, normalized to GAPDH, untreated = 1
Text: (§5) It has been reported that FPR1 can exert a tumor suppressor function in human GC by inhibiting angiogenesis and that silencing of the receptor increases the constitutive proangiogenic potential of GC cells. Therefore, we assessed the effect of 24a and 25a on the mRNA expression level and secretion of the proangiogenic factors, the vascular growth factor A (VEGFA), and the angiopoietin 2. […] These effects were more pronounced in NCl–N87 cells and resulted more strongly for 25a than 24a. The values obtained after each treatment were normalized to the expression of GAPDH and compared to the reference value of the two genes in untreated cells, which were set equal to 1 (Fig. 9).
(§6) Fig. 9. Effect of 24a and 25a on mRNA expression of VGFA and ANGPT2 in NCl–N87 and AGS cell lines. Real-time PCR experiments in NCl–N87 and AGS cells with specific primers for VEGFA and ANGPT2 genes. The mRNA expression was normalized on the GAPDH housekeeping gene. Expression analysis was performed after treatment with fMLF (10 nM) and 24a or 25a (1, 2, 5 μM) administrated alone or combining the lowest dose of 24a or 25a with fMLF. All expression values were calculated against the value of untreated PTX-sensitive cells, set equal to 1. Statistical analysis was assessed by comparing the values obtained using single drug treatment to those of corresponding untreated cells and the combined treatments to those of single treatments. The values of untreated PTX-resistant cells were compared with those of untreated PTX-sensitive ones. Data were mean ± SD (n = 3). *p < 0.05, **p < 0.001, ***p < 0.0002, ****p < 0.0001.
(§7) Total RNA was extracted from FPR1 antagonist-treated NCl–N87 and AGS treated cells using the Qiagen RNeasy Mini Kit (Qiagen, Hilden, Germany) following the manufacturer’s instructions. Samples were retro-transcribed using the iScript Advanced cDNA Synthesis Kit (Bio-Rad Laboratories, California, USA). Real-Time-PCRs analyzed cDNA samples for the evaluation of VEGFA and ANGPT2 expression. […] Relative quantification was performed using the ddCT method.

VEGFA mRNA = experiment: Real-time PCR of VEGFA mRNA expression in NCl–N87 and AGS cells; assay type: cell-based, human; conditions: 24 h, fMLF 10 nM, antagonists 1 or 2 μM, normalized to GAPDH, untreated = 1
Text: as §5, §6, §7

NCl–N87 cells [2] = experiment: Muse Ki67 proliferation assay in NCl–N87 cells; assay type: cell-based, human; conditions: NCl–N87, 5 μM, 24 h; control cells 81.3%
Method: Representative flow cytometry charts reporting percentage of Ki67 negative (blue) and positive (red) cells (panel A). Statistical charts reporting the results from three independent experiments and expressed as means ± SD (panel B). Statistical analysis was assessed by comparing the values obtained using single drug treatment to those of corresponding untreated cells and the combined treatments to those of the single treatments, *p < 0.05; **p < 0.001; ***p < 0.0001.
The Muse Ki67 Proliferation Assay was used with the Guava Muse Cell Analyzer according to manufacturer’s instructions (Luminex Corporation, Austin, USA). Briefly, the cells were stained after fixation and permeabilization procedures by using Hu Ki67 or Hu IgG1 control fluorochrome-conjugated antibodies to distinguish Ki67^+ or Ki67^− cells, respectively. The software provided the percentage of both Ki67(+) and Ki67(−) cells.

[3] = 48 h, read-out: NCl–N87 EC50 (μM ± S.E.M.) 48 h
[4] = read-out: NCl–N87 EC50 (μM ± S.E.M.) 24 h, 24 h
[5] = read-out: NCl–N87 EC50 (μM ± S.E.M.) 72 h, 72 h
[6] = 48 h, read-out: AGS EC50 (μM ± S.E.M.) 48 h
[7] = read-out: AGS EC50 (μM ± S.E.M.) 24 h, 24 h
[8] = read-out: AGS EC50 (μM ± S.E.M.) 72 h, 72 h

Structure (SMILES): CCCCCCc1cc2c(=O)c(-c3ccccc3OC)c(C)oc2cc1NC(C)=O [Compound 35a, N-[6-Hexyl-3-(2-methoxyphenyl)-2-methyl-4-oxo-4H-chromen-7-yl]acetamide]
remaining at 0.5 h, 10 µM (in vitro; rat liver microsomes): 14%

Structure (SMILES): CCCc1cc2c(=O)c(-c3ccccc3OC)c(C)oc2cc1NC(C)=O [Compound 36, N-[3-(2-methoxyphenyl)-2-methyl-4-oxo-6-propyl-4H-chromen-7-yl]acetamide]
remaining at 0.5 h, 10 µM (in vitro; rat liver microsomes): 15%

Structure (SMILES): CCCCCCc1cc2c(=O)c(-c3ccccc3OC)c(C(F)(F)F)oc2cc1OC(C)=O [Compound 25a, 6-Hexyl-3-(2-methoxyphenyl)-4-oxo-2-(trifluoromethyl)-4H-chromen-7-yl acetate]
EC50 (NCl–N87 cells [1]; [3]): 10.2 ± 1 µM
EC50 (NCl–N87 cells [1]; [4]): 13.3 ± 1.88 µM
EC50 (NCl–N87 cells [1]; [5]): 2.65 ± 0.5 µM
EC50 (AGS cells; [6]): 8 ± 0.1 µM
EC50 (AGS cells; [7]): 16.7 ± 0.7 µM
EC50 (AGS cells; [8]): 5.45 ± 3.45 µM
angiopoietin 2 (ANGPT2) mRNA expression (ANGPT2 mRNA): dose-dependent increase
VEGFA mRNA expression (VEGFA mRNA): dose-dependent increase

Structure (SMILES): CCCCCCc1cc2c(=O)c(-c3ccccc3OC)c(C)oc2cc1OCC(F)F [Compound 30, 7-(2,2-Difluoroethoxy)-6-hexyl-3-(2-methoxyphenyl)-2-methyl-4H-chromen-4-one]
remaining at 0.5 h, 10 µM (in vitro; rat liver microsomes): 18%

Structure (SMILES): CCCc1cc2c(=O)c(-c3ccccc3OC)c(C)oc2cc1OC(=O)N(C)C [Compound 39, 3-(2-Methoxyphenyl)-2-methyl-4-oxo-6-propyl-4H-chromen-7-yl dimethylcarbamate]
FPR1-HL60 (IC50, μM) (human FPR1): practically inactive
IC50 (human FPR1): 28.9 ± 7.6 µM
remaining at 0.5 h, 10 µM (in vitro; Liver): 10%

Second part, led by results:

IC50 (human FPR1): 0.8 ± 0.3 µM
Structure (SMILES): CCCCc1cc2c(=O)c(-c3ccccc3OC)c(C)oc2cc1OC(C)=O [Compound 28, 6-Butyl-3-(2-methoxyphenyl)-2-methyl-4-oxo-4H-chromen-7-yl acetate]

IC50 (human FPR1): 0.15 ± 0.05 µM
Structure (SMILES): CCCc1cc2c(=O)c(-c3cccc(OC)c3)c(C)oc2cc1OC(C)=O [Compound 26b, 3-(3-Methoxyphenyl)-2-methyl-4-oxo-6-propyl-4H-chromen-7-yl acetate]

IC50 (human FPR1): 21.9 ± 6.5 µM
Structure (SMILES): CCCCCCC(=O)Oc1cc2oc(C)c(-c3cccc(OC)c3)c(=O)c2cc1C [Compound 37b, 3-(3-Methoxyphenyl)-2,6-dimethyl-4-oxo-4H-chromen-7-yl heptanoate]

IC50 (human FPR1): 0.16 ± 0.03 µM
Structure (SMILES): CCCCCCc1cc2c(=O)c(-c3cccc(OC)c3)c(C(F)(F)F)oc2cc1OC(C)=O [Compound 25b, 6-Hexyl-3-(3-methoxyphenyl)-4-oxo-2-(trifluoromethyl)-4H-chromen-7-yl acetate]

EC50 (AGS cells; [6]): 11 ± 1.91 µM
EC50 (AGS cells; [7]): 24.7 ± 4 µM
EC50 (AGS cells; [8]): 7.55 ± 1.75 µM
Structure (SMILES): CCCCCCc1cc2c(=O)c(-c3ccccc3OC)c(C)oc2cc1OC(C)=O [Compound 24a, 6-Hexyl-3-(2-methoxyphenyl)-2-methyl-4-oxo-4H-chromen-7-yl acetate]
EC50 (NCl–N87 cells [1]; [3]): 8.65 ± 0.65 µM
EC50 (NCl–N87 cells [1]; [4]): 32.9 ± 2.95 µM
EC50 (NCl–N87 cells [1]; [5]): 11.5 ± 1.2 µM
angiopoietin 2 (ANGPT2) mRNA expression (ANGPT2 mRNA): dose-dependent increase
VEGFA mRNA expression (VEGFA mRNA): dose-dependent increase
percentage of Ki67(+) cells (NCl–N87 cells [2]): 73.1%

IC50 (human FPR1): 0.4 ± 0.1 µM
Structure (SMILES): CCCCCc1cc2c(=O)c(-c3ccccc3OC)c(C)oc2cc1OC(C)=O [Compound 29, 3-(2-Methoxyphenyl)-2-methyl-4-oxo-6-pentyl-4H-chromen-7-yl acetate]
